Kd data for seven compounds are collected here from BindingDB's records for doi:10.1021/bi1005283 (Merck Research Laboratories, 2010).

The target of this assay is T1, Kinesin-like protein KIF11 (Homo sapiens, UniProt P52732).
T1 sequence (P52732 whole entry): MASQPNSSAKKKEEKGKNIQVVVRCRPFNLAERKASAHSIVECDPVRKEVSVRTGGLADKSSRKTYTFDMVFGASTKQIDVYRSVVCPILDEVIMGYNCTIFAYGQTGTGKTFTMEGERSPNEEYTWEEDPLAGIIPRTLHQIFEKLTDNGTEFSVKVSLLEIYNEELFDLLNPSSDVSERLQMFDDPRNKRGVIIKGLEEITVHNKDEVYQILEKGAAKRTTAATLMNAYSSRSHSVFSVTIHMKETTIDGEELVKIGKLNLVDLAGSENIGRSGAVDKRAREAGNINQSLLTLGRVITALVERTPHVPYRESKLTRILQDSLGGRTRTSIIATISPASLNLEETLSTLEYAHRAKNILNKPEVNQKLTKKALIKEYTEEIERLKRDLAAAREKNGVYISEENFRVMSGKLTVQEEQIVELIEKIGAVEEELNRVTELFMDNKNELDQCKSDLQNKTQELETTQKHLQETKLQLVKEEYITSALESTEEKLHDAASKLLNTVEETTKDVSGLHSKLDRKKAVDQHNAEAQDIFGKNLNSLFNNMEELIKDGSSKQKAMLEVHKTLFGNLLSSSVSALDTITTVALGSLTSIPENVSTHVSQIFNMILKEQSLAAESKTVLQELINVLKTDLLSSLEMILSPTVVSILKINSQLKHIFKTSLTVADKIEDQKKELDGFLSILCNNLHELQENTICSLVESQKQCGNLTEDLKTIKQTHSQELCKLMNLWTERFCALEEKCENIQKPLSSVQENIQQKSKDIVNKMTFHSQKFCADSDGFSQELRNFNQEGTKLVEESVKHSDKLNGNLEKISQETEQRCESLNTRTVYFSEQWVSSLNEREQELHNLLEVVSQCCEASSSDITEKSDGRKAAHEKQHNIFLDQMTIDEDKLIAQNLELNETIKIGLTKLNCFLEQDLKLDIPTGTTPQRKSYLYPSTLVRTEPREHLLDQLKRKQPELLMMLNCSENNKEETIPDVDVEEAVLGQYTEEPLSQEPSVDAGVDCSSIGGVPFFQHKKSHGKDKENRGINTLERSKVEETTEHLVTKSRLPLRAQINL
Kind of assay: Binding Assay. An excerpt:
Binding assay using temperature-dependent circular dichroism (TdCD). In TdCD, the loss of protein secondary structure was monitored as a function of temperature. Proteins bound with ligand become more resistant to thermal unfolding compared to the unliganded protein because of the additional stabilization interactions created between the ligand and protein.

What is called Kd is a measure of binding affinity in units of concentration. A lower Kd goes with a tighter complex. For `NC(=O)c1ccc2c(c1)nc(Nc1ccc(S(N)(=O)=O)cc1)n2Cc1ccccc1C(F)(F)F` [KSP Inhibitor, 4e], the Kd is 0.6 µM.

Compound `CS(=O)(=O)c1ccc(Nc2nc3cc(C(N)=O)ccc3n2Cc2ccccc2C(F)(F)F)cc1` [KSP Inhibitor, 4b] yielded a Kd of 2.5 µM.

The compound `CSc1ccc(Nc2nc3cc(C(N)=O)ccc3n2Cc2ccccc2C(F)(F)F)cc1` [KSP Inhibitor, 4a] returned an equilibrium dissociation constant (Kd) of 2 µM.

For the compound `COc1ccc(Nc2nc3cc(C(=O)O)ccc3n2Cc2ccccc2C(F)(F)F)cc1`, the affinity, expressed as Kd, was 1.2 µM.

Consider `COc1ccc(Nc2nc3cc(C(=O)O)ccc3n2Cc2ccccc2OC(F)(F)F)cc1` [KSP Inhibitor, 4g], for which the Kd is 3.4 µM.

In turn, `COc1ccc(Nc2nc3cc(C(=O)O)ccc3n2Cc2ccccc2OC)cc1` [KSP Inhibitor, 4d] returned a Kd of 5 µM.

In turn, `O=C(O)c1ccc2c(c1)nc(Nc1ccc(OCc3ccccc3)cc1)n2Cc1ccccc1C(F)(F)F` [KSP Inhibitor, 4c] had a dissociation constant (Kd) of 14 µM.
